From patent US20260297081A1, “COMPOUNDS AND METHODS OF TREATING CANCERS” (Cullgen Inc., priority 2023, published 2026)

These molecules were tested on MCF7 cells (assay: Anti-proliferation (viability) of MCF7 cells (Table 7, FIG. 2B)). Settings: Homo sapiens, MCF7, MCF7 cells, 3-6 days, 10-point serial dilution; read-out: GI IC50 in MCF-7.
Format: cell-based

Compound | IC50 [nM]
CNc1ccc(C(=O)Nc2ccc(N(C)C)nn2)c(NC2CC(OC(=O)N3CCN(c4ccc(Nc5ncc6c(C)c(C(C)=O)c(=O)n(C7CCCC7)c6n5)nc4)CC3)C2)n1 (stereo not shown) [CPD-311, 3-((3-((6-(dimethylamino)pyridazin-3-yl)carbamoyl)-6-(methylamino)pyridin-2-yl)amino)cyclobutyl 4-(6-((6-acetyl-8-cyclopentyl-5-methyl-7-oxo-7,8-dihydropyrido[2,3-d]pyrimidin-2-yl)amino)pyridin-3-yl)piperazine-1-carboxylate] | > 100
CCn1nc(NC(=O)c2ccc(NC)nc2NC2CC3(CC(NC(=O)CN4CCN(c5ccc(Nc6ncc7c(C)c(C(C)=O)c(=O)n(C8CCCC8)c7n6)nc5)CC4)C3)C2)cc1C (stereo not shown) [CPD-312, 2-((6-(2-(4-(6-((6-acetyl-8-cyclopentyl-5-methyl-7-oxo-7,8-dihydropyrido[2,3-d]pyrimidin-2-yl)amino)pyridin-3-yl)piperazin-1-yl)acetamido)spiro[3.3]heptan-2-yl)amino)-N-(1-ethyl-5-methyl-1H-pyrazol-3-yl)-6-(methylamino)nicotinamide] | > 100
CC(=O)c1c(C)c2cnc(Nc3ccc(N4CCN(CCC(=O)N5CCC(Nc6nc(NC(C)C)ccc6C(=O)Nc6cn(C)c(C7CC7)n6)CC5)CC4)cn3)nc2n(C2CCCC2)c1=O [CPD-313, 2-((1-(3-(4-(6-((6-acetyl-8-cyclopentyl-5-methyl-7-oxo-7,8-dihydropyrido[2,3-d]pyrimidin-2-yl)amino)pyridin-3-yl)piperazin-1-yl)propanoyl)piperidin-4-yl)amino)-N-(2-cyclopropyl-1-methyl-1H-imidazol-4-yl)-6-(isopropylamino)nicotinamide] | > 100
CCCn1nc(NC(=O)c2ccc(NC)nc2NC2CC3(CC(NC(=O)CN4CCN(c5ccc(Nc6ncc7c(C)c(C(C)=O)c(=O)n(C8CCCC8)c7n6)nc5)CC4)C3)C2)cc1C (stereo not shown) [CPD-314, 2-((6-(2-(4-(6-((6-acetyl-8-cyclopentyl-5-methyl-7-oxo-7,8-dihydropyrido[2,3-d]pyrimidin-2-yl)amino)pyridin-3-yl)piperazin-1-yl)acetamido)spiro[3.3]heptan-2-yl)amino)-N-(5-methyl-1-propyl-1H-pyrazol-3-yl)-6-(methylamino)nicotinamide] | > 100
CNc1ccc(C(=O)Nc2cc(C)n(C3CC3)n2)c(NC2CC3(CC(NC(=O)CN4CCN(c5ccc(Nc6ncc7c(C)c(C(C)=O)c(=O)n(C8CCCC8)c7n6)nc5)CC4)C3)C2)n1 (stereo not shown) [CPD-315, 2-((6-(2-(4-(6-((6-acetyl-8-cyclopentyl-5-methyl-7-oxo-7,8-dihydropyrido[2,3-d]pyrimidin-2-yl)amino)pyridin-3-yl)piperazin-1-yl)acetamido)spiro[3.3]heptan-2-yl)amino)-N-(1-cyclopropyl-5-methyl-1H-pyrazol-3-yl)-6-(methylamino)nicotinamide] | > 100
CC(=O)c1c(C)c2cnc(Nc3ccc(N4CCN(CC(=O)NC5CC6(C5)CC(Oc5nc(NC(C)C)ccc5C(=O)Nc5cn(C)c(C7CC7)n5)C6)CC4)cn3)nc2n(C2CCCC2)c1=O (stereo not shown) [CPD-317, 2-((6-(2-(4-(6-((6-acetyl-8-cyclopentyl-5-methyl-7-oxo-7,8-dihydropyrido[2,3-d]pyrimidin-2-yl)amino)pyridin-3-yl)piperazin-1-yl)acetamido)spiro[3.3]heptan-2-yl)oxy)-N-(2-cyclopropyl-1-methyl-1H-imidazol-4-yl)-6-(isopropylamino)nicotinamide] | > 100
CC(=O)c1c(C)c2cnc(Nc3ccc(N4CCN(CC(=O)NC5CC6(C5)CC(Nc5nc(CC(C)C)ccc5C(=O)Nc5cn(C)c(C7CC7)n5)C6)CC4)cn3)nc2n(C2CCCC2)c1=O (stereo not shown) [CPD-318, 2-((6-(2-(4-(6-((6-acetyl-8-cyclopentyl-5-methyl-7-oxo-7,8-dihydropyrido[2,3-d]pyrimidin-2-yl)amino)pyridin-3-yl)piperazin-1-yl)acetamido)spiro[3.3]heptan-2-yl)amino)-N-(2-cyclopropyl-1-methyl-1H-imidazol-4-yl)-6-isobutylnicotinamide] | > 100
CNc1ccc(C(=O)Nc2ccc(N(C)C)nn2)c(NC2CC(N3CCC(CN4CCN(c5ccc(Nc6ncc7c(C)c(C(C)=O)c(=O)n(C8CCCC8)c7n6)nc5)CC4)C3)C2)n1 (stereo not shown) [CPD-319, 2-((3-(3-((4-(6-((6-acetyl-8-cyclopentyl-5-methyl-7-oxo-7,8-dihydropyrido[2,3-d]pyrimidin-2-yl)amino)pyridin-3-yl)piperazin-1-yl)methyl)pyrrolidin-1-yl)cyclobutyl)amino)-N-(6-(dimethylamino)pyridazin-3-yl)-6-(methylamino)nicotinamide] | > 100
CNc1ccc(C(=O)Nc2cn(C)c(C3CC3)n2)c(NC2CC3(C2)CN(C(=O)C2CC24CCN(c2ccc(Nc5ncc6c(C)c(C(C)=O)c(=O)n(C7CCCC7)c6n5)nc2)CC4)C3)n1 (stereo not shown) [CPD-320, 2-((2-(6-(6-((6-acetyl-8-cyclopentyl-5-methyl-7-oxo-7,8-dihydropyrido[2,3-d]pyrimidin-2-yl)amino)pyridin-3-yl)-6-azaspiro[2.5]octane-1-carbonyl)-2-azaspiro[3.3]heptan-6-yl)amino)-N-(2-cyclopropyl-1-methyl-1H-imidazol-4-yl)-6-(methylamino)nicotinamide] | > 100
CNc1ccc(C(=O)Nc2cn(C)c(C3CC3)n2)c(NC2CC3(C2)CN(C(=O)C2CC4(CCN(c5ccc(Nc6ncc7c(C)c(C(C)=O)c(=O)n(C8CCCC8)c7n6)nc5)CC4)C2)C3)n1 (stereo not shown) [CPD-321, 2-((2-(7-(6-((6-acetyl-8-cyclopentyl-5-methyl-7-oxo-7,8-dihydropyrido[2,3-d]pyrimidin-2-yl)amino)pyridin-3-yl)-7-azaspiro[3.5]nonane-2-carbonyl)-2-azaspiro[3.3]heptan-6-yl)amino)-N-(2-cyclopropyl-1-methyl-1H-imidazol-4-yl)-6-(methylamino)nicotinamide] | > 100
CNc1ccc(C(=O)Nc2ccc(N(C)C)nn2)c(NC2CC3(C2)CN(C(=O)C2CC4(CCN(c5ccc(Nc6ncc7c(C)c(C(C)=O)c(=O)n(C8CCCC8)c7n6)nc5)CC4)C2)C3)n1 (stereo not shown) [CPD-325, 2-((2-(7-(6-((6-acetyl-8-cyclopentyl-5-methyl-7-oxo-7,8-dihydropyrido[2,3-d]pyrimidin-2-yl)amino)pyridin-3-yl)-7-azaspiro[3.5]nonane-2-carbonyl)-2-azaspiro[3.3]heptan-6-yl)amino)-N-(6-(dimethylamino)pyridazin-3-yl)-6-(methylamino)nicotinamide] | > 100
CC(=O)c1c(C)c2cnc(Nc3ccc(N4CCN(C(C)C(=O)NC5CC(Nc6nc(NC(C)C)ccc6C(=O)Nc6cn(C)c(C7CC7)n6)C5)CC4)cn3)nc2n(C2CCCC2)c1=O (stereo not shown) [CPD-327, 2-((3-(2-(4-(6-((6-acetyl-8-cyclopentyl-5-methyl-7-oxo-7,8-dihydropyrido[2,3-d]pyrimidin-2-yl)amino)pyridin-3-yl)piperazin-1-yl)propanamido)cyclobutyl)amino)-N-(2-cyclopropyl-1-methyl-1H-imidazol-4-yl)-6-(isopropylamino)nicotinamide] | > 100
CNc1ccc(C(=O)Nc2ccc(N(C)C)nn2)c(NC2CCN(C(=O)C3CC4(CCN(c5ccc(Nc6ncc7c(C)c(C(C)=O)c(=O)n(C8CCCC8)c7n6)nc5)CC4)C3)CC2)n1 [CPD-329, 2-((1-(7-(6-((6-acetyl-8-cyclopentyl-5-methyl-7-oxo-7,8-dihydropyrido[2,3-d]pyrimidin-2-yl)amino)pyridin-3-yl)-7-azaspiro[3.5]nonane-2-carbonyl)piperidin-4-yl)amino)-N-(6-(dimethylamino)pyridazin-3-yl)-6-(methylamino)nicotinamide] | > 100
CNc1ccc(C(=O)Nc2cn(C)c(C(C)O)n2)c(NC2CC3(CC(NC(=O)CN4CCN(c5ccc(Nc6ncc7c(C)c(C(C)=O)c(=O)n(C8CCCC8)c7n6)nc5)CC4)C3)C2)n1 (stereo not shown) [CPD-330, 2-((6-(2-(4-(6-((6-acetyl-8-cyclopentyl-5-methyl-7-oxo-7,8-dihydropyrido[2,3-d]pyrimidin-2-yl)amino)pyridin-3-yl)piperazin-1-yl)acetamido)spiro[3.3]heptan-2-yl)amino)-N-(2-(1-hydroxyethyl)-1-methyl-1H-imidazol-4-yl)-6-(methylamino)nicotinamide] | > 100
CNc1ccc(C(=O)Nc2ccc(N(C)C)nn2)c(NC2CC(C(=O)N3CC4(CCN(c5ccc(Nc6ncc7c(C)c(C(C)=O)c(=O)n(C8CCCC8)c7n6)nc5)CC4)C3)C2)n1 (stereo not shown) [CPD-331, 2-((3-(7-(6-((6-acetyl-8-cyclopentyl-5-methyl-7-oxo-7,8-dihydropyrido[2,3-d]pyrimidin-2-yl)amino)pyridin-3-yl)-2,7-diazaspiro[3.5]nonane-2-carbonyl)cyclobutyl)amino)-N-(6-(dimethylamino)pyridazin-3-yl)-6-(methylamino)nicotinamide] | > 100
CNc1ccc(C(=O)Nc2ccc(N(C)C)nn2)c(NC2CC(C(=O)N3CC(N4CCN(c5ccc(Nc6ncc7c(C)c(C(C)=O)c(=O)n(C8CCCC8)c7n6)nc5)CC4)C3)C2)n1 (stereo not shown) [CPD-332, 2-((3-(3-(4-(6-((6-acetyl-8-cyclopentyl-5-methyl-7-oxo-7,8-dihydropyrido[2,3-d]pyrimidin-2-yl)amino)pyridin-3-yl)piperazin-1-yl)azetidine-1-carbonyl)cyclobutyl)amino)-N-(6-(dimethylamino)pyridazin-3-yl)-6-(methylamino)nicotinamide] | > 100
CNc1ccc(C(=O)Nc2ccc(N(C)C)nn2)c(NC2CC(n3cc(CN4CCN(c5ccc(Nc6ncc7c(C)c(C(C)=O)c(=O)n(C8CCCC8)c7n6)nc5)CC4)nn3)C2)n1 (stereo not shown) [CPD-335, 2-((3-(4-((4-(6-((6-acetyl-8-cyclopentyl-5-methyl-7-oxo-7,8-dihydropyrido[2,3-d]pyrimidin-2-yl)amino)pyridin-3-yl)piperazin-1-yl)methyl)-1H-1,2,3-triazol-1-yl)cyclobutyl)amino)-N-(6-(dimethylamino)pyridazin-3-yl)-6-(methylamino)nicotinamide] | > 100
CNc1ccc(C(=O)Nc2ccc(N(C)C)nn2)c(N[C@H]2C[C@@H](CN3CCC(CN4CCN(c5ccc(Nc6ncc7c(C)c(C(C)=O)c(=O)n(C8CCCC8)c7n6)nc5)CC4)C3)C2)n1 (stereo partly shown) [CPD-336] | > 100

Same assay, conditions: MCF7 cells, 3-6 days, 10-point serial dilution; read-out: GI IC50 in MCF-7

Compound | IC50 [nM]
CNc1ccc(C(=O)Nc2ccc(N(C)C)nn2)c(NC2CC(C(=O)N3CCC(N4CCN(c5ccc(Nc6ncc7c(C)c(C(C)=O)c(=O)n(C8CCCC8)c7n6)nc5)CC4)CC3)C2)n1 (stereo not shown) [CPD-334] | > 100
